Results as given in patent US20170267727A1, “Conjugates of pH Low Insertion Peptide and Monomethyl Auristatins in the Treatment of Solid Tumors” (Lehigh University, priority 2016, published 2017).
“Also recorded” adds a separate entry of the source. Positions of bridges follow the written chain, without caps; N, C: chain ends. Non-standard residues stand in square brackets, D forms with d. Residues, ends and D or L forms follow the SMILES beside them. Chains are numbered I, II in the order given. No end group written: not given here. *: point of attachment. Dolaproine = CO[C@@H]([C@@H]1CCCN1)[C@@H](C)C(=O)O; Dil = CC[C@H](C)[C@H](NC)[C@@H](CC(=O)O)OC; X1 = C[C@@H](N*)[C@@H](O)c1ccccc1; NMeV = CN[C@H](C(=O)O)C(C)C; Mpa = O=C(O)CCS

How the values were obtained:
[1] = cited from earlier work
[2] = cited from earlier work; remark: listed apart in the source
HeLa cells [3] = assay: Anti-proliferation Assay (2 hours treatment at pH 7.4 or 5.0, 72 hours growth, MTT)
Method: (§1) FIG. 3A, FIG. 3C and FIG. 3E show HeLa cells treated with pHLIP(WT)-MMAE, pHLIP(D25E)-MMAE, and MMAE(linker), respectively. FIG. 3B, FIG. 3D and FIG. 3F show MDA-MB-231 cells treated with pHLIP(WT)-MMAE, pHLIP(D25E)-MMAE, and MMAE(linker), respectively. Black columns represent cells treated at pH 7.4 and cells treated at low pH are shown in grey. For each condition, 3,000 cells/well (96-well plate) were seeded, allowed to adhere overnight, treated for 2 hours, washed once with media and grown for 72 hour in complete medium at physiologic pH. Cell viability was assessed with the MTT assay. All measurements were normalized to the media control (0 μM, pH 7.4), as 100% cell viability. Results are shown as mean±SD (n=6-9).
HeLa cells treated with pHLIP(WT)-MMAF (FIG. 9A), pHLIP(D25E)-MMAF (FIG. 9B), pHLIP(P20G)-MMAF (FIG. 9C), and pHLIP(R11Q)-MMAF (FIG. 9D). Circles represent cells treated at pH 7.4 and squares represent cells treated at pH 5.0. Results are shown as the mean±SEM (n=6-9).
(§2) Anti-proliferation Assay. HeLa and MDA-MB-231 cells were seeded in 96-well plates at a density of 3,000 cells/well and incubated overnight. Before treatment, construct aliquots were solubilized in an appropriate volume of DMEM without FBS (pH 7.4)—so that upon pH adjustment the desired treatment concentration is obtained—and gently sonicated for 30-60 seconds using a bath sonicator (Branson Ultrasonics). After removal of cell media, this treatment solution was added to each well and incubated at 37° C. for 5-10 minutes. The pH was then adjusted to the desired value using a pre-established volume of DMEM, pH 2.0 buffered with citric acid (final volume=50 μL) and the plate was incubated at 37° C. for 2 hours. After treatment, the media was removed, cells were washed once with 100 μL of complete DMEM, and 100 μL of complete medium was added to each well before returning the plate to the incubator. Treatment solutions were collected and their pH values measured using a micro-combination pH probe (Microelectrodes, Inc.). […] Cell viability was determined after 72 hours using the colorimetric MTT assay. Briefly, 10 μL of a 5 mg/mL MTT stock solution was added to the treated cells and incubated for 2 hours at 37° C. The resulting formazan crystals were solubilized in 200 μL DMSO and the absorbance measured at 580 nm using an Infinite 200 PRO microplate reader (Tecan). Cell viability was calculated against control cells treated with media at physiologic pH.
(§3) Inhibition of Cell Proliferation. The ability of pHLIP to move MMAE across the cell membrane and to inhibit cancer cell proliferation in concentration and pH-dependent manners was evaluated. Cell treatments for both pHLIP(WT)-MMAE and pHLIP(D25E)-MMAE constructs were carried out with conjugate concentrations ranging from 1.25 to 10 μM at either pH 7.4 or 5.0. After a 2-hour incubation at 37° C., the treatment media was replaced by fresh media, and cells were grown for an additional 72 hours at normal pH before assessing cell viability using the MTT assay. […] This treatment protocol is quite stringent when compared to the typical multi-days exposure treatments used with free drugs (FIG. 6A and FIG. 6B).

HeLa tumors = details: end of the three week study, n=8
Method: HeLa (ATCC#CCL-2) were injected subcutaneously into the inguinal space of female Ncr nu/nu mice. Tumors were allowed to develop until they were approximately 75 mm^3 in size. […] On days 1, 3, 5, and 8, animals were injected intravenously with 200 microliters of either pHLIP-MMAF (20 microM in PBS+1% DMSO) or vehicle control (PBS+1% DMSO). Tumors were measured with calipers on routine basis for approximately 3 weeks and tumor volumes calculated with the formula: length×width×(height×0.5). Animals were euthanized when tumors reached a volume of 500 mm^3. FIG. 10A depicts tumor growth as a function of initial tumor volume. FIG. 10B depicts tumor volume. FIG. 10C depicts overall survival.
HeLa (ATCC#: CCL-2) were injected subcutaneously (s.c.) into the inguinal space of female Ncr nu/nu mice. Tumors were allowed to develop until they were approximately 75 mm^3 in size. […] On days 1, 3, 5, and 8 animals were injected intravenously with 200 microliters of either pHLIP-MMAF (20 microM in PBS+1% DMSO) or vehicle control (PBS+1% DMSO). Tumors were measured with calipers on routine basis for approximately 3 weeks and tumor volumes calculated with the formula Length×Width×(Height×0.5). […] A tumor volume of 500 mm^3 was prospectively set as the stopping point for this study.

[4] = Toxicity Studies (CBC and comprehensive metabolic panel); assay type: in vivo; details: four 1 mg/kg injections on days 1, 3, 5 and 7; monitored 2 weeks after final injection
Method: Four one milligram/kilogram (1 mg/kg) injections of pHLIP(WT)-MMAF are given to subjects on days 1, 3, 5 and 7. Overall health, liver and kidney function, and electrolytes are monitored using a complete blood count (CBC) and comprehensive metabolic panel, for a period of 2 weeks after the final injection.

A431 tumors = details: i.p., 1 mg/kg
[5] = cited from earlier work; remark: listed apart in the source
MDA-MB-231 cells = assay: Anti-proliferation Assay (2 hours treatment at pH 7.4 or 5.0, 72 hours growth, MTT)
Method: as §1, §2, §3

HeLa cells [6] = assay: Cell proliferation with free drug, 72 hours incubation, MTT assay; assay type: cell-based, Human; details: incubated with the cells for 72 hours; read-out: IC50 against HeLa cells
Method: FIG. 6A and FIG. 6B show inhibition of HeLa (FIG. 6A) and MDA-MB-231 (FIG. 6B) cell proliferation by free MMAE modified with a succinimide nitrophenyl-based linker (MMAE+linker) and by unmodified MMAE. For each cell assay 3,000 cells/well were seeded, allowed to adhere overnight and incubated with either compound for 72 hours in complete medium at physiologic pH. Cell viability was determined with the MTT assay. All measurements were normalized to the 1% DMSO controls. Results are shown as mean±SD (n=6). Data were fitted with a sigmoidal dose response function in Prism for Mac (GraphPad Software, Inc.).
Cell Culture. Human cervical adenocarcinoma HeLa cells and human breast adenocarcinoma MDA-MB-231 cells were cultured in Dulbecco's modified Eagle's medium (DMEM supplemented with 10% FBS, 100 U/mL penicillin, and 0.1 mg/mL streptomycin in a humidified atmosphere of 5% CO2 at 37° C.

[7] = 2.5 μL (so in the source), low pH

For CC[C@H](C)[C@@H]([C@@H](CC(=O)N1CCC[C@H]1[C@H](OC)[C@@H](C)C(=O)N[C@@H](Cc1ccccc1)C(=O)OC)OC)N(C)C(=O)[C@@H](NC(=O)[C@@H](NC)C(C)C)C(C)C [MMAF-Ome, monomethyl auristatin F-OMe] (H-[NMeV]V[Dil][Dolaproine]F-OMe), the “Log P o/w” value [1] is given as 2.8 and the IC50 [2] is given as 0.001 nM.
With “I: AAEQNPIYWARYADWLFTTPLLLLDLALLVDADEGTCG-NH2 / II: [Mpa][NMeV]V[Dil][Dolaproine]F (disulfide I:37-II:1; C-terminus assumed) [pHLIP(WT)-MMAF]” the “improvement over treatments with pHLIP(WT)-MMAE” value (HeLa cells [3]) was “ca. 100 fold”, the cell killing (HeLa cells [3]; pH 7.4 versus pH 5.0) was “clear pH-selective and concentration-dependent killing” and the “animals removed for tumor size exceeding 500 mm^3” value (HeLa tumors) was “only a single animal”. For the same compound, the “overall health, liver and kidney function, electrolytes” value [4] was “Clinically significant differences in overall health, liver and kidney function, and electrolytes were not observed” and the “effect on A431 tumors” value (A431 tumors) was “Analogous results were obtained”.
For amanitin, the pKa of insertion [5] is listed as 5.9.
For CC[C@H](C)[C@@H]([C@@H](CC(=O)N1CCC[C@H]1[C@H](OC)[C@@H](C)C(=O)N[C@@H](Cc1ccccc1)c1nccs1)OC)N(C)C(=O)[C@@H](NC(=O)[C@H](C(C)C)N(C)C)C(C)C [Dolastatin 10], the “Log P o/w” value [1] is given as 3.4 and the IC50 [2] is given as 0.1 nM.
For “pHLIP(D25E) (AAEQNPIYWARYADWLFTTPLLLLELALLVDADEGTCG-NH2) [reference compound]”, the “effect of peptide alone on cell viability” value (HeLa cells [3]; 10 μM, pH 7.4 or pH 5.0) is given as “not cytotoxic; also recorded: neither pHLIP(WT) or pHLIP(D25E) peptides have any harmful effects”, the “effect of peptide alone on cell viability” value (MDA-MB-231 cells; 10 μM, pH 7.4 or pH 5.0) is given as “not cytotoxic; also recorded: neither pHLIP(WT) or pHLIP(D25E) peptides have any harmful effects” and the pKa of insertion [5] is given as 6.49.
In the case of CC[C@H](C)[C@@H]([C@@H](CC(=O)N1CCC[C@H]1[C@H](OC)[C@@H](C)C(=O)N[C@@H](Cc1ccccc1)C(=O)O)OC)N(C)C(=O)[C@@H](NC(=O)[C@@H](NC)C(C)C)C(C)C [MMAF, monomethyl auristatin F] (H-[NMeV]V[Dil][Dolaproine]F-OH), the “Log P o/w” value [1] is given as 0.7 and the IC50 [2] is given as 105 to 250 nM.
With CC[C@H](C)[C@@H]([C@@H](CC(=O)N1CCC[C@H]1[C@H](OC)[C@@H](C)C(=O)N[C@H](C)[C@@H](O)c1ccccc1)OC)N(C)C(=O)[C@@H](NC(=O)[C@@H](NC)C(C)C)C(C)C [MMAE, monomethyl auristatin E, reference compound] (H-[NMeV]V[Dil][Dolaproine]-X1) the IC50 (HeLa cells [6]) was ~4 nM, the cytotoxicity (HeLa cells [3]; [7]) was 20-30% and the cytotoxicity (HeLa cells [3]; physiological pH, 5 μM) was “about 70%”. For the same compound, the cytotoxicity (MDA-MB-231 cells; [7]) was 20-30%, the “Log P o/w” value [1] was 2.2 and the IC50 [2] was 0.1 to 2 nM.
